According to ChEMBL document CHEMBL1201862, “PubChem BioAssay data set” (2004):
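A five-concentration, 48-hour dose response in 96-well plates underlies each endpoint, interpolated linearly between surrounding concentrations. Abbreviation: GI50, concentration required for 50% inhibition of growth.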 Activity calls are given as the source filed them. No stated cut-off is given here; in the data, active = GI50 up to about 1.1 µM and inactive = higher. Residues, ends and D or L forms follow the SMILES beside them. *: point of attachment. Bn = c1ccc(C*)cc1

Legend:
Assay in all cases: inhibition of tumour cell growth, NCI panel, 48 h
786-0 = test system: 786-0
DU-145 = test system: DU-145
HCC 2998 = test system: HCC 2998
HOP-92 = test system: HOP-92
HT-29 = test system: HT-29
K562 = test system: K562
MDA-MB-435 = test system: MDA-MB-435
MDA-N = test system: MDA-N
Malme-3M = test system: Malme-3M
NCI-H23 = test system: NCI-H23
NCI-H460 = test system: NCI-H460
OVCAR-5 = test system: OVCAR-5
OVCAR-8 = test system: OVCAR-8
RPMI-8226 = test system: RPMI-8226
SK-MEL-28 = test system: SK-MEL-28
SK-MEL-2 = test system: SK-MEL-2
SNB-19 = test system: SNB-19
SW-620 = test system: SW-620
TK-10 = test system: TK-10
U-251 = test system: U-251

Measured: GI50

O=C(NC(Nc1ccc(F)c(Cl)c1)(C(F)(F)F)C(F)(F)F)C(C(F)(F)F)C(F)(F)F
inactive: 786-0 30.5 µM | DU-145 27.5 µM | HCC 2998 > 100 µM | HOP-92 29.2 µM | HT-29 21.9 µM | K562 14.5 µM | MDA-MB-435 26.5 µM | MDA-N 28.5 µM | Malme-3M 19.1 µM | NCI-H23 23.3 µM | NCI-H460 36.1 µM | OVCAR-5 23.9 µM | OVCAR-8 25.9 µM | RPMI-8226 20 µM | SK-MEL-28 50.7 µM | SK-MEL-2 16.6 µM | SNB-19 30.9 µM | SW-620 22.1 µM | TK-10 36.4 µM | U-251 29.2 µM

CC1(C)OC1CC/C(=C/CBr)CBr (configuration not stated)
inactive: 786-0 15.4 µM | DU-145 20.9 µM | HCC 2998 16 µM | HOP-92 15.4 µM | HT-29 14.9 µM | K562 15.8 µM | MDA-MB-435 17.8 µM | MDA-N 15.3 µM | Malme-3M 22.3 µM | NCI-H23 15.5 µM | NCI-H460 15 µM | OVCAR-5 17.5 µM | RPMI-8226 12.9 µM | SK-MEL-28 17.2 µM | SK-MEL-2 14.8 µM | SNB-19 15.2 µM | SW-620 15 µM | TK-10 18.2 µM | U-251 15.6 µM

O=S1(=O)NC2CCC3NS(=O)(=O)NC4CCC(N1)N4S(=O)(=O)N23 (configuration not stated)
inactive: 786-0 > 100 µM | DU-145 > 100 µM | HCC 2998 > 100 µM | HOP-92 > 100 µM | HT-29 > 100 µM | K562 > 100 µM | MDA-MB-435 > 100 µM | MDA-N > 100 µM | Malme-3M > 100 µM | NCI-H23 > 100 µM | NCI-H460 > 100 µM | OVCAR-5 > 100 µM | OVCAR-8 > 100 µM | RPMI-8226 > 100 µM | SK-MEL-28 > 100 µM | SK-MEL-2 > 100 µM | SNB-19 > 100 µM | SW-620 > 100 µM | TK-10 > 100 µM | U-251 > 100 µM

NC(Cc1ccccc1)C(=O)O (stereo not drawn) [DL-PHENYLALANINE]
inactive: 786-0 > 100 µM | DU-145 > 100 µM | HCC 2998 > 100 µM | HOP-92 > 100 µM | HT-29 > 100 µM | K562 > 100 µM | MDA-MB-435 > 100 µM | MDA-N > 100 µM | Malme-3M > 100 µM | NCI-H23 > 100 µM | NCI-H460 > 100 µM | OVCAR-5 > 100 µM | OVCAR-8 > 100 µM | RPMI-8226 > 100 µM | SK-MEL-28 > 100 µM | SK-MEL-2 > 100 µM | SNB-19 > 100 µM | SW-620 > 100 µM | TK-10 > 100 µM | U-251 > 100 µM

COC(=O)C(CC(C)C)NC(=O)C(N)Cc1ccc(OCc2ccccc2)cc1 (configuration not stated) (H-Tyr(Bn)-Leu-OMe; configuration not given here)
inactive: 786-0 > 10 µM | DU-145 > 10 µM | HCC 2998 > 10 µM | HOP-92 > 10 µM | HT-29 > 10 µM | K562 > 10 µM | MDA-MB-435 > 10 µM | MDA-N > 10 µM | Malme-3M 2.9 µM | NCI-H23 > 10 µM | NCI-H460 > 10 µM | OVCAR-5 > 10 µM | OVCAR-8 > 10 µM | RPMI-8226 > 10 µM | SK-MEL-28 > 10 µM | SK-MEL-2 > 10 µM | SNB-19 > 10 µM | SW-620 > 10 µM | TK-10 > 10 µM | U-251 > 10 µM

Cc1ccc(S(=O)(=O)Nn2c(S)c(C#N)c(-c3ccc(N(C)C)cc3)c(C#N)c2=O)cc1
inactive: 786-0 28.6 µM | DU-145 40.6 µM | HCC 2998 38.2 µM | HOP-92 29.6 µM | K562 38.8 µM | MDA-MB-435 19.6 µM | MDA-N > 100 µM | Malme-3M 18.7 µM | NCI-H23 19.1 µM | NCI-H460 15.2 µM | OVCAR-5 35 µM | OVCAR-8 15.9 µM | RPMI-8226 15.6 µM | SK-MEL-28 20.1 µM | SNB-19 43 µM | SW-620 18.1 µM | TK-10 19.8 µM | U-251 21.5 µM

O=C(c1ccccc1F)c1c(NCc2ccccc2)c(=O)c1=O
inactive: 786-0 > 100 µM | DU-145 > 100 µM | HCC 2998 > 100 µM | HOP-92 > 100 µM | HT-29 > 100 µM | K562 > 100 µM | MDA-MB-435 > 100 µM | MDA-N > 100 µM | Malme-3M > 100 µM | NCI-H23 > 100 µM | NCI-H460 > 100 µM | OVCAR-5 > 100 µM | OVCAR-8 > 100 µM | RPMI-8226 > 100 µM | SK-MEL-28 > 100 µM | SK-MEL-2 > 100 µM | SNB-19 > 100 µM | SW-620 > 100 µM | TK-10 > 100 µM | U-251 > 100 µM
